In US20020045780A1, “Biologically active spermidine analogues, pharmaceutical compositions and methods of treatment” (priority 1997, published 2002):
Entries after “also recorded” stand apart in the source; their conditions may differ. Where a name gives a salt, the structure may show the parent alone. Read-outs that look alike come from different tables or passages of the source.

Key:
[1] = test system: S-adenosylmethionine decarboxylase (AdoMetDC); experiment: AdoMetDC activity in treated L1210 cells; format: cell-based, murine; details: L1210, 1 μM at 6 hours
Protocol: (§1) On the basis of these studies, it was elected to evaluate the impact of the triamines on ODC and AdoMetDC at 4 and 6 hours, respectively.
(§2) ODC and AdoMetDC activities were determined as ^14CO2 released from [^14C]-carboxyl-labeled L-ornithine [Seely et al, “Ornithine Decarboxylase (Mouse Kidney),” Methods Enzymol., Vol. 94, pages 158-161 (1983)] or S-adenosyl-L-methionine [Pegg et al, “S-Adenosylmethionine Decarboxylase (Rat Liver),” Methods Enzymol., Vol. 94, pages 234-239 (1983)], respectively. Included in each assay were untreated L1210 cells as controls, as well as cells treated with DEHSPM, a drug having a known reproducible effect on each enzyme, as positive controls.

[2] = test system: spermidine/spermine acetyltransferase (SSAT); experiment: SSAT activity in treated L1210 cells; format: cell-based, murine; details: L1210, 10 μM at 48 hours (triamine analogues)
From the text: Spermidine/spermine N^1-acetyltransferase activity was based on quantitation of [^14C]-N^1-acetylspermidine formed by acetylation of SPD with [^14C] acetyl coenzyme A according to the method of Libby et al [Biochem. Pharmacol., Vol. 38, supra]. Cells treated with DENSPM were positive controls.

[3] = test system: ornithine decarboxylase (ODC); experiment: ODC activity in treated L1210 cells; format: cell-based, murine; details: L1210, 1 μM at 4 hours
Protocol: as §1, §2

[4] = test system: polyamine transport apparatus; experiment: Competitive uptake determination: inhibition of [3H]spermidine transport into L1210 cells; format: cell-based, murine; details: analogue inhibition of spermidine transport
Protocol: The ability of the norspermidines, spermidines, homospermidines, 4,5- and 5,5-triamines to compete with radiolabeled SPD for uptake was evaluated (Table 1). The general trend is that the terminally alkylated triamines have higher Ki values than the unalkylated triamines and are thus less easily taken up by the cell. […] This is not completely true with the norspermidines and the 5,5 triamines. The relationship holds with methyl and ethyl but not for the propyl of the latter two systems. Finally, the number of methylenes separating the amines plays a role in determining polyamine uptake properties. In general the effectiveness with which the analogues compete for uptake is spermidines≈homospermidines>4,5 triamines>5,5 triamines>norspermidine.
The polyamine derivatives were studied for their ability to compete with [^3H]-SPD for uptake into L1210 cells [Bergeron et al, J. Med. Chem., Vol. 37, supra]. Lineweaver-Burk plots indicated a simple competitive inhibition with respect to SPD.

[5] = test system: L1210 cells; experiment: Metabolic transformation of polyamine analogues by L1210 cells; format: in vitro ADME, murine; details: 48 hours
Protocol: (§3) The cells were washed twice with cold RPMI-1640, and the pellet was treated with 0.6 N HClO4 (1 ml/10^7 cells). Polyamine contents of the perchloric acid extracts were quantitated by HPLC of the DANSYL derivatives [Bergeron et al, J. Med. Chem., Vol. 37, supra].

[6] = test system: L1210 cells; experiment: L1210 growth inhibition, IC50 determination; format: cell-based, murine
Protocol: Murine L1210 leukemia cells (ATCC CCL 219) were maintained in logarithmic growth in RPMI-1640 medium containing 10% fetal calf serum or a semi-synthetic equivalent, NuSerum, 2% HEPES-MOPS buffer and 1 mM aminoguanidine.

[7] = test system: L1210 cells; experiment: Polyamine pool analysis in L1210 cells; format: cell-based, murine; details: for activity at 100 µM / activity at 500 µM: Mus musculus, L1210, 48 h, % of untreated control; for Analogue: intracellular amount, 48 hours
Protocol: The following guidelines were adopted for studying the impact of the analogues on polyamine pools (Table 2). The measurements were made after a 48-hour exposure to the analogue, and two different concentrations of analogue were evaluated in each case.
as §3

[8] = Mus musculus, L1210, 48 h, L1210, 48 hour exposure, read-out: IC50 48 hour
[9] = Mus musculus, L1210, 96 h, L1210, 96 hour exposure, read-out: IC50 96 hour

Row | Compound | Parent drug as % of total drug in the cell ([5]; 100 μM analogue) [%] | Parent drug in L1210 cells ([5]; 100 μM analogue) [pmols/10^6] | IC50 [6, 8] [µM] | IC50 [6, 9] [µM] | Analogue ([7]; 100 μM) [nmol/10^6 cells] | Analogue ([7]; 500 μM) [nmol/10^6 cells] | AdoMetDC activity, percent of untreated control [1] | SSAT activity, percent of untreated control [2] | ODC activity, percent of untreated control [3] | Ki [4] [µM] | activity at 100 µM ([7]; 100 μM, read-out: Put) [%] | activity at 100 µM ([7]; 100 μM, read-out: Spd) [%] | activity at 100 µM ([7]; 100 μM, read-out: Spm) [%] | activity at 500 µM ([7]; 500 μM, read-out: Put) [%] | activity at 500 µM ([7]; 500 μM, read-out: Spd) [%] | activity at 500 µM ([7]; 500 μM, read-out: Spm) [%] | also measured
1 | CCCNCCCCCNCCCCNCCC [DP(4,5), 4,9,15-Triazaoctadecane Trihydrochloride] | 69.7 | 1325 | ~100 | < 2 | 1.40 | 2.42 | 86% of untreated control | 80% of untreated control | 83% of untreated control | 75 | 0 | 40 | 119 | 0 | 31 | 121 | Elaboration to tetraamine (result in words) ([5]; 100 μM analogue): no elaboration of N-Monoalkyl [5,4]; IC50 ([6]; L1210, 96 hour exposure, Trihydrochloride, read-out: IC50 96 hour): 1 to 1.4 µM
2 | CCCNCCCCNCCCCNCCC [DPHSPD, N^1,N^9-Dipropylhomospermidine Trihydrochloride] | – | – | > 100 | 6 | 3.12 | 3.68 | 123% of untreated control | 420% of untreated control | 86% of untreated control | 67 | 0 | 19 | 144 | 0 | 7 | 111 | Elaboration to tetraamine (result in words) ([5]; 500 μM analogue): elaboration of N-Monoalkyl [4,4]; Parent drug as % of total drug in the cell ([5]; 500 μM analogue): 87.7%; Parent drug in L1210 cells ([5]; 500 μM analogue): 3149 pmols/10^6
3 | CCCNCCCNCCCNCCC [DPNSPD, N^1,N^7-Dipropylnorspermidine Trihydrochloride] | 57.7 | 404 | > 100 | 60 | 0.49 | 1.24 | 99% of untreated control | 220% of untreated control | 100% of untreated control | 125 | 70 | 76 | 96 | 68 | 71 | 102 | –
4 | CNCCCCNCCCCNC [DMHSPD, N^1,N^9-Dimethylhomospermidine Trihydrochloride] | 100 | 5500 | > 100 | 0.9 | 5.51 | 5.85 | 86% of untreated control | 510% of untreated control | 20% of untreated control | 5.5 | 0 | 3 | 106 | 0 | 0 | 106 | N-Monodealkylation (result in words) ([5]; 100 μM analogue): no N-demethylation

Continued, in another order:

Row | Parent drug as % of total drug in the cell ([5]; 100 μM analogue) [%] | Parent drug in L1210 cells ([5]; 100 μM analogue) [pmols/10^6] | IC50 [6, 8] [µM] | IC50 [6, 9] [µM] | Analogue ([7]; 100 μM) [nmol/10^6 cells] | Analogue ([7]; 500 μM) [nmol/10^6 cells] | Compound | AdoMetDC activity, percent of untreated control [1] | SSAT activity, percent of untreated control [2] | ODC activity, percent of untreated control [3] | Ki [4] [µM] | activity at 100 µM ([7]; 100 μM, read-out: Put) [%] | activity at 100 µM ([7]; 100 μM, read-out: Spd) [%] | activity at 100 µM ([7]; 100 μM, read-out: Spm) [%] | activity at 500 µM ([7]; 500 μM, read-out: Put) [%] | activity at 500 µM ([7]; 500 μM, read-out: Spd) [%] | activity at 500 µM ([7]; 500 μM, read-out: Spm) [%] | also measured
5 | 99.4 | 4825 | > 100 | 40 | 4.41 | 4.96 | CCNCCCCNCCCN [MESPD(N8), N^8-Ethylspermidine Trihydrochloride] | 54% of untreated control | 400% of untreated control | 17% of untreated control | 7 | 0 | 26 | 84 | 0 | 15 | 61 | Elaboration to tetraamine (result in words) ([5]; 100 μM analogue, listed as N8-ME-[4,3], Trihydrochloride): no evidence of a tetraamine elaboration metabolite; also recorded: no elaboration of N8-Alkyl [4,3]
6 | 94.3 | 3019 | > 100 | ~100 | 3.07 | 4.78 | CCCNCCCNCCCN [MPNSPD, N^1-Propylnorspermidine Trihydrochloride] | 38% of untreated control | 470% of untreated control | 33% of untreated control | 33 | 0 | 29 | 56 | 0 | – | < 50 | Elaboration to tetraamine (result in words) ([5]; 100 μM analogue, listed as MP-[3,3], Trihydrochloride): no evidence of a tetraamine elaboration metabolite; also recorded: no elaboration of N-Monoalkyl [3,3]
7 | 96.3 | 3946 | > 100 | 3 to 5 | 4.20 | 4.73 | CCNCCCNCCCCN [MESPD(N1), N^1-Ethylspermidine Trihydrochloride] | 58% of untreated control | 430% of untreated control | 10 (10) percent of untreated control | 8.6 | 0 | 25 | 80 | 0 | 14 | 53 | –
